Test results reported in publication PMC11826995, “Modulation of Protein–Protein Interactions with Molecular Glues in a Synthetic Condensate Platform” (Journal of the American Chemical Society, 2025).
Square brackets hold non-standard residues; d marks the D form. Peptide text beside a SMILES is read from it. * marks the point of attachment. X1 = CCN(CC)c1ccc2c(-c3ccc(NC(=S)*)cc3C(=O)[O-])c3ccc(=[N+](CC)CC)cc-3oc2c1; pS = N[C@@H](COP(=O)(O)O)C(=O)O; AEA = NCCOCC(=O)O

Columns and labels:
[1] = LC-MS assay for partitioning of small molecules between bulk and condensate phase; assay type: physicochemical; settings: 100 µM FC, 2 h equilibration
PPARγ/PRIPRAP [2] = target: T1, PPARγ/PRIPRAP (Homo sapiens, UniProt P37231); experiment: Confocal microscopy of PRIPRAP coregulator recruitment to PPARγ-loaded condensates; assay type: biochemical; settings: 100 nM PRIPRAP; for PRIPRAP recruitment to PPARγ-loaded condensates relative to DMSO control: 10 μM ligand, 400 nM PPARγ, overnight
T1 construct: made in house; host or cells: bacterial culture with IPTG induction

PPARγ/PRIPRAP [3] = target: T2, PPARγ/PRIPRAP (Homo sapiens, UniProt P37231); experiment: as above; assay type: biochemical; settings: GW9662 10 μM + tesaglitazar 10 μM
T2 construct: made in house; host or cells: bacterial culture with IPTG induction
T2 sequence (P37231 235-505): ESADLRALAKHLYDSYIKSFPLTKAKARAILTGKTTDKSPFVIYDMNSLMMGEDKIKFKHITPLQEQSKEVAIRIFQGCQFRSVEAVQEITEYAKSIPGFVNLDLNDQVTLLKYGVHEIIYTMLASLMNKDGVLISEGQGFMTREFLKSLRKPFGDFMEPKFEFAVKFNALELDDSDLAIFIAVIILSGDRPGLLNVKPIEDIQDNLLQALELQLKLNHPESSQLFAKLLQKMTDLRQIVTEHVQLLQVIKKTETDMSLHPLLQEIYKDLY

apo 14-3-3σ = target: apo 14-3-3σ; design: method as in PMID 30996864; settings: read-out: KD^II (intrinsic affinity for apo 14-3-3σ); cited from earlier work
14-3-3σ/HSPB6 = target: T3, 14-3-3σ/HSPB6 (Homo sapiens, UniProt P31947); experiment: Competition of molecular glue with HSPB6 for 14-3-3σ binding in condensates (confocal microscopy); assay type: biochemical; settings: 14-3-3σ-loaded condensates with HSPB6, overnight
T3 sequence (P31947 1-248): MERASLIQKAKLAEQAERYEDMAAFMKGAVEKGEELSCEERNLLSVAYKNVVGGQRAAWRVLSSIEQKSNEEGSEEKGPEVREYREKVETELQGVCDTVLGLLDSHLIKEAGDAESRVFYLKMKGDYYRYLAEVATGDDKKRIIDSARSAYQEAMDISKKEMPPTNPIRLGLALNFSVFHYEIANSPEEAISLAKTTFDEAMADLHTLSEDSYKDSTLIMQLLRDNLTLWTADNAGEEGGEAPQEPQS

[4] = target: 14-3-3σ/CIP2A interaction (Homo sapiens, UniProt P31947); experiment: Confocal microscopy of CIP2A client recruitment to 14-3-3σ-loaded synthetic condensates; assay type: biochemical; settings: 100 nM CIP2A; for enhancement of CIP2A recruitment at 100 μM molecular glue: 100 μM compound
14-3-3γ/ERRγ interaction [5] = tested on: 14-3-3γ/ERRγ interaction; design: method as in PMID 36926879; settings: cited from earlier work
PPARγ/PRIPRAP [6] = experiment: Fluorescence anisotropy titration of PPARγ to PRIPRAP peptide with PPAR ligands; assay type: binding; settings: FA, PPARγ titrated to PRIPRAP peptide
Excerpt: to prevent aspecific hydrophobic interactions.
4-parameter logistic model . The resulting KD or KDapp obtained from the fit is shown as mean with the

PPARγ/EP300 = target: T4, PPARγ/EP300 (Homo sapiens, UniProt P37231); experiment: Tesaglitazar-dependent recruitment of EP300 to PPARγ-loaded condensates; assay type: biochemical
T4 construct: made in house; host or cells: bacterial culture with IPTG induction
T4 sequence (P37231 238-503 limits assumed): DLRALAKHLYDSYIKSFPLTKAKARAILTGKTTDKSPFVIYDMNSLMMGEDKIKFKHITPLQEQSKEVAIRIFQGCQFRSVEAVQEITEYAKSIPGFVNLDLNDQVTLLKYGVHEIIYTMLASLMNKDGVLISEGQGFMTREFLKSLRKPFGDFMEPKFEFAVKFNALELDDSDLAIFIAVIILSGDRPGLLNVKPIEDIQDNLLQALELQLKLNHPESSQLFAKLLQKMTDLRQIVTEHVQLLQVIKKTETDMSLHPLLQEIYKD
Protocol: (§1) The dose dependence of the PPI formation was studied using tesaglitazar (Figures 6g, S24 and S25). Here, we found a significant effect in PPI stabilization in the condensates at 10 μM compound. […].

PPARγ/MED1 DRIP-2 = target: T5, PPARγ/MED1 DRIP-2 (Homo sapiens, UniProt P37231); experiment: Tesaglitazar-dependent recruitment of MED1 DRIP-2 to PPARγ-loaded condensates; assay type: biochemical
T5 construct: made in house; host or cells: bacterial culture with IPTG induction
T5 sequence (P37231 238-503 limits assumed): T4 sequence (P37231 238-503 limits assumed)
Protocol: as §1

[7] = Partitioning of autofluorescent chiglitazar into condensates by confocal fluorescence; assay type: physicochemical; settings: 10 µM, intensity inside condensates versus dilute solution
14-3-3γ/ERRγ interaction [8] = target: T6, 14-3-3γ/ERRγ interaction (Homo sapiens, UniProt P61981); experiment: Split luciferase assay inside condensates; assay type: biochemical; settings: 250 pM LgBiT-ERRγ, 250 pM 14-3-3γ-SmBiT, 100 μM compound, 50 μM TCEP, overnight
T6 construct: made in house; host or cells: E. coli BL21(DE3)
T6 sequence (P61981 2-238 limits assumed): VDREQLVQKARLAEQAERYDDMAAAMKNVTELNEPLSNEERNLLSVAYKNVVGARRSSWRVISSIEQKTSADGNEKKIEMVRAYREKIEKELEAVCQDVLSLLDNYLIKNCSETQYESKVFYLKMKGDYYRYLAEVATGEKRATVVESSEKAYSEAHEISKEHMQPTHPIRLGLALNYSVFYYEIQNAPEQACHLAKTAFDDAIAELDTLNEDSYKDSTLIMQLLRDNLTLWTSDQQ

14-3-3σ = target: T7, 14-3-3σ (Homo sapiens, UniProt P31947); experiment: Fluorescence anisotropy protein titration of 14-3-3σ to HSPB6 peptide; assay type: binding
T7 sequence (P31947 1-248): T3 sequence (P31947 1-248)

14-3-3γ/ERRγ interaction [9] = target: T8, 14-3-3γ/ERRγ interaction (Homo sapiens, UniProt P61981); experiment: Confocal microscopy of FITC-ERRγ recruitment to 14-3-3γ-loaded condensates; settings: 100 µM compound, 100 nM FITC-ERRγ
T8 sequence (P61981 1-247): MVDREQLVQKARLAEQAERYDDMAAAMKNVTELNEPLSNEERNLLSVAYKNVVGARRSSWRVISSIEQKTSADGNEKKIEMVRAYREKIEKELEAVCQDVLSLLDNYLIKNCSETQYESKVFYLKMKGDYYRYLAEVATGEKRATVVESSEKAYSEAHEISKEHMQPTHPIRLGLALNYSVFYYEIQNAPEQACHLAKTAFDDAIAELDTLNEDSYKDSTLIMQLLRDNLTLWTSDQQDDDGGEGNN

14-3-3γ/ERRγ = 14-3-3γ/ERRγ (Homo sapiens, UniProt P61981); experiment: pH-dependent fluorescence anisotropy titration of 14-3-3γ to FAM-labeled ERRγ peptide; assay type: binding; settings: 100 µM compound
Protocol: page 10: acetonitrile was used. […] Fluorescence anisotropy (FA) assays […] labeled peptides. […] (1 picture or pasted object on this page, not shown here) page 23: Table S5. […] compound R1. Data obtained from a fit using a four-parameter logistic model to determine KD or KDapp values as 95% confidence interval. The mean s were used for the calculation of the stabilization factor. pH DMSO: KD at 24 h (μM) Compound […] 24 h (μM) Stabilization factor […] 8.0 4.3-8.6 0.054-0.061 103 […] Figure S16. a) Schematic overview of mCherryEA structure and uptake into synthetic condensates. The […] 552 nm, with collection of emission between 562-700 nm in both settings . c) Confocal micrographs of condensates prepared at different pH (bulk pH values shown), with 500 nM of mCherryEA. Excitation was performed at 488 nm or 552 nm, with collection of emission between 562 -700 nm in both settings. d) Plot of the determined local pH values in the condensates relative to the buffer pH (bulk), as determined from the samples in pa nel c and the calibration curve. (1 picture or pasted object on this page, not shown here)

C=CC(C)(C)OCC1OC(OC2C3=C(C(C)COC(C)=O)CC(O)C3(C)C=C3C(COC)CCC3C(C)C2O)C(O)C(O)C1O (stereo not shown) [FC, Fusicoccin A]
partitioning coefficient to the condensate phase [1]: 0.96 ± 0.02

O=C(Nc1ccccc1)c1cc([N+](=O)[O-])ccc1Cl [GW9662]
PRIPRAP recruitment to PPARγ-loaded condensates relative to DMSO control (PPARγ/PRIPRAP [2]): did not influence PRIPRAP recruitment | effect of antagonist in codosing with tesaglitazar on PRIPRAP recruitment (PPARγ/PRIPRAP [3]): inhibited the stabilizing effect of tesaglitazar

C=CC(C)(C)OC[C@H]1O[C@H](O[C@@H]2C3=C([C@H](C)CNC(C)=O)C[C@H](O)[C@]3(C)/C=C3/[C@@H](COC)CC[C@H]3[C@@H](C)[C@H]2O)[C@H](O)[C@@H](O)[C@@H]1O [FC-NAc]
Kd (apo 14-3-3σ): 10 µM | competition with HSPB6 for 14-3-3 binding in condensates (14-3-3σ/HSPB6): significant competition with HSPB6 | enhancement of recruitment of CIP2A at 1 μM molecular glue ([4]; 1 μM compound): significant enhancement of recruitment

CN(C)CCSSCCN(C)C(=O)c1cccc(F)c1 [Compound R4]
SF100μM (stabilization factor at 100 μM compound concentration) (14-3-3γ/ERRγ interaction [5]): 5

COCC1CCC2C1=CC1(C)C(=C(C(C)C)C3CCOC31)C(OC1OC3COC(C)(C)OC3C(O)C1O)C(O)C2C (stereo not shown) [FC-THF]
enhancement of CIP2A recruitment at 100 μM molecular glue [4]: significant enhancement of CIP2A recruitment

C=CC(C)(C)OC[C@H]1O[C@H](O[C@@H]2C3=C(C(C)C)C[C@H](O)[C@]3(C)/C=C3/[C@@H](COC)CC[C@H]3[C@@H](C)[C@H]2O)[C@H](O)[C@@H](O)[C@@H]1O [FC-J]
enhancement of CIP2A recruitment at 100 μM molecular glue [4]: differentiated performance between the FA assay and the condensates

C=CC(C)(C)OC[C@H]1O[C@H](O[C@@H]2C3=C([C@H](C)CN4CCCCC4)C[C@H](O)[C@]3(C)/C=C3/[C@@H](COC)CC[C@H]3[C@@H](C)[C@H]2O)[C@H](O)[C@@H](O)[C@@H]1O [FC-31]
enhancement of CIP2A recruitment at 100 μM molecular glue [4]: significant enhancement of CIP2A recruitment

CCO[C@@H](Cc1ccc(OCCc2ccc(OS(C)(=O)=O)cc2)cc1)C(=O)O [Tesaglitazar]
SF100 μM (stabilization factor, fold change in KD^app in the presence of the compound) (PPARγ/PRIPRAP [6]): 19 | PRIPRAP recruitment to PPARγ-loaded condensates relative to DMSO control (PPARγ/PRIPRAP [2]): significant recruitment of PRIPRAP | compound concentration with significant effect in PPI stabilization in the condensates (PPARγ/PRIPRAP [2]; dose dependence): 10 µM | ligand-mediated stabilization of PPARγ/EP300 in condensates (PPARγ/EP300): ligand-mediated stabilization of the PPI was observed | ligand-mediated stabilization of PPARγ/MED1 DRIP-2 in condensates (PPARγ/MED1 DRIP-2): ligand-mediated stabilization of the PPI was observed

chiglitazar
partitioning coefficient [7]: 23 ± 4

CN(C)CCSSCCN(C)C(=O)c1ccc(C=O)cc1 [Compound R2]
bioluminescence signal in split luciferase assay inside condensates (14-3-3γ/ERRγ interaction [8]): significantly enhanced bioluminescence signal | SF100μM (stabilization factor at 100 μM compound concentration) (14-3-3γ/ERRγ interaction [5]): 10

CN(C)CCN(C)C(=O)c1ccc(C=O)c(F)c1 [Compound R5]
bioluminescence signal in split luciferase assay inside condensates (14-3-3γ/ERRγ interaction [8]): no change in the bioluminescence | SF100μM (stabilization factor at 100 μM compound concentration) (14-3-3γ/ERRγ interaction [5]): 1

CN(C)CCSSCCN(C)C(=O)c1cc(Br)cc(C=O)c1 [Compound R3]
bioluminescence signal in split luciferase assay inside condensates (14-3-3γ/ERRγ interaction [8]): significantly enhanced bioluminescence signal | SF100μM (stabilization factor at 100 μM compound concentration) (14-3-3γ/ERRγ interaction [5]): 37

CCN(CC)c1ccc2c(-c3ccc(NC(=S)NCCOCC(=O)N[C@@H](Cc4c[nH]c5ccccc45)C(=O)N[C@@H](CC(C)C)C(=O)N[C@@H](CCCNC(=N)N)C(=O)N[C@@H](CCCNC(=N)N)C(=O)N[C@@H](C)C(=O)N[C@@H](COP(=O)(O)O)C(=O)N[C@@H](C)C(=O)N4CCC[C@H]4C(=O)N[C@@H](CC(C)C)C(=O)N4CCC[C@H]4C(=O)NCC(=O)N[C@@H](CC(C)C)C(=O)N[C@@H](CO)C(=O)N[C@@H](C)C(=O)N4CCC[C@H]4C(N)=O)cc3C(=O)[O-])c3ccc(=[N+](CC)CC)cc-3oc2c1 [HSPB6] ({X1-AEA}-WLRRA[pS]APLPGLSAP-NH2; C-terminus assumed)
fold lower KD for 14-3-3σ than CIP2A in dilute solution (14-3-3σ): > 10 fold

CN(C)CCSSCCN(C)C(=O)c1cccc(C=O)c1 [Compound R1]
ERRγ recruitment to condensates over time (14-3-3γ/ERRγ interaction [9]): reacts over time to yield ERRy recruitment | bioluminescence signal in split luciferase assay inside condensates (14-3-3γ/ERRγ interaction [8]): significantly enhanced bioluminescence signal | Stabilization factor (14-3-3γ/ERRγ; pH 6.5, 24 h): 3 | Stabilization factor (14-3-3γ/ERRγ; pH 7.0, 24 h): 8 | Stabilization factor (14-3-3γ/ERRγ; pH 7.5, 24 h): 40 | Stabilization factor (14-3-3γ/ERRγ; pH 8.0, 24 h): 103 | Stabilization factor (14-3-3γ/ERRγ; pH 8.5, 24 h): 152 | SF100μM (stabilization factor at 100 μM compound concentration) (14-3-3γ/ERRγ interaction [5]): 21
